Measurements: patent US8637266B2, “Anti bone-loss and anti attachment-loss effects of an oral composition” (Colgate-Palmolive Company, priority 2009, dated 2014)

Legend:
MMP-9 = test: TNFα-induced MMP-9 production of U937 monocytes (ELISA of conditioned media); type: cell-based, Human; conditions: for MMP-9 production, Average: U937 cells, 24 hours, conditioned media ELISA
Method: U937 cells and RPMI 1640 culture medium were obtained from ATCC. Human MMP-9 ELISA Kit (QUANTIKINE) was obtained from R&D Systems. Fetal Bovine Serum (FBS) was obtained from VWR, and the penicillin-streptomycin solution and Tumor Necrosis Factor α (TNFα) were obtained from Sigma.
Human leukemia U937 monocyte lymphoma cells were cultured in RPMI 1640 medium supplemented with 10% FBS and 1% Penicillin-Streptomycin solution. Cells were incubated at 37° C. in a humidified atmosphere containing 5% CO2 and 95% air. Before treatment, cells were transferred into RPMI containing 1% FBS for overnight. Cells were plated on a 48 well plate. Cell culture medium included either TNFα (250 ng/mL), Triclosan(1 ppm), or both agents together or no agent (control). Cells were incubated after treatment for 24 hours. Conditioned media were collected and store at −80° C. until analysis. Samples of conditioned media were subjected to enzyme-linked immunosorbent assays (ELISA) for MMP-9, according to commercial ELISA protocol (FIG. 1).

MMP-13 = test: PTH-induced MMP-13 expression in UMR 106-01 osteoblast cells (real time quantitative RT-PCR); type: cell-based, Rat
Method: Parathyroid hormone (rat PTH 1-34) was purchased from Sigma. UMR 106-01 cells were cultured in Eagle's minimal essential medium (EMEM) supplemented with 25 mM Hepes pH 7.4, 1% nonessential amino acids, 100 units/rill penicillin, 100 μg/ml streptomycin. 5% fetal bovine serum. Real Time Quantitative RT-PCR was conducted according to the following method: UMR 106-01 cells were seeded in 12-well plates and cultured for 2-3 days in cell culture media. When cells were confluent, cell culture media was exchanged with 1% fetal bovine serum for overnight for cell starvation. Cells were pre-incubated with triclosan or a triclosan-containing dentifrice (see. e.g., U.S. Pat. Nos. 4,894,220, 5,032,386, and related patents) for 15 min and then incubated with PTH (10^−8 M) for 4 hours.
Total RNA was isolated from UMR 106-01 cells stimulated with or without PTH with TRIzol reagent. Total RNA (0.1 μg) was reverse-transcribed to cDNA using the Invitrogen SUPERSCRIPT kit according to the manufacturer's instructions. All cDNAs were amplified by adding 2.5 μl of cDNA to the PCR mixture (22.5 μl) containing each primer (0.2 μM) and 12.5 μl of the Platinum SYBR Green qPCR SuperMix UDG (Invitrogen). The reactions were preincubated at 50° C. for 2 minutes to decontaminate dU-containing DNA by UDG, then at 95° C. for 2 minutes to inactivate UDG and activate Taq. The PCR program continued 49 cycles of denaturation at 95° C. for 15 seconds, annealing and elongation of the primers at 60° C. for 30 seconds. Relative quantification of gene expression was determined by using the 2-delta delta CT method where fold changes in gene expression are relative to control samples. All samples were normalized to β-actin.
All results were expressed as means±standard error (S.E.) of triplicate measurements with all experiments being repeated at least three times. Statistical analyses were carried out using the Student's t test.

[1] = with PEG 600, weight ratio of 25 triclosan:1 PEG 600, versus absence of polyethylene glycol; cited from earlier work

Oc1cc(Cl)ccc1Oc1ccc(Cl)cc1Cl [Triclosan, 2,4,4′-trichloro-2′-hydroxydiphenyl ether]
effect on MMP-9 level in TNFα stimulated U937 cells (MMP-9; Triclosan at 1 ppm): significantly reduced
MMP-9 production, Average (MMP-9; TNFα 250 ng/mL + Triclosan 1 ppm): 0.155 ng/mL
MMP-13 expression, Average (fold change relative to control, normalized to β-actin) (MMP-13; Triclosan 1 ppm + PTH 10^−8 M, 15 min pre-incubation, 4 hours): 35.38
MMP-13 expression, Average (fold change relative to control, normalized to β-actin) (MMP-13; Triclosan 1 ppm, without PTH): 0.4166
MMP-13 expression, Average (fold change relative to control, normalized to β-actin) (MMP-13; Triclosan 4 ppm + PTH 10^−8 M, 15 min pre-incubation, 4 hours): 10.56
MMP-13 expression, Average (fold change relative to control, normalized to β-actin) (MMP-13; Triclosan 4 ppm, without PTH): 1.424
MMP-13 expression, Average (fold change relative to control, normalized to β-actin) (MMP-13; Triclosan 10 ppm + PTH 10^−8 M, 15 min pre-incubation, 4 hours): 3.012
MMP-13 expression, Average (fold change relative to control, normalized to β-actin) (MMP-13; Triclosan 10 ppm, without PTH): 1.518
effect on MMP-13 expression in PTH stimulated UMR cells (MMP-13; Triclosan at 10 ppm, 4 ppm and 1 ppm): significantly reduced
factor by which antibacterial activity is reduced [1]: 10-20

TNFα
MMP-9 production, Average (MMP-9; TNFα 250 ng/mL alone): 0.275 ng/mL
